Test results as given in patent US11052099B2, “Use of cimicifugae rhizoma triterpenoid saponin extract, actein, and deoxyactein” (BEIJING DITAN HOSPITAL, CAPITAL MEDICAL UNIVERSITY, priority 2017, dated 2021).

How the values were obtained:
[1] = test system: ConA hepatitis mouse model; assay: Survival rate of ConA hepatitis mouse model; type: in vivo, C57BL/6 mice; conditions: ConA 25 mg/kg i.v.; 96-hour observation; gavage, extract 15 mg/kg, actein and deoxyactein 5 mg/kg; model group 10%
Experimental: Test materials: ConA was purchased from Sigma; actein and deoxyactein were purchased from ChromaDex, USA.
(§1) Animal: C57BL/6 mice, purchased from Beijing Huafukang Biotechnology Co., Ltd.
Grouping: 40 C57BL/6 mice, male, 18-20 g, after 1 day of adaptive breeding, mice were randomly divided into 4 groups of 10 animals in each group: ConA model group, triterpenoid saponin group, actein group, and deoxyactein group.
Model preparation and drug administration: weighed 150 mg of ConA powder, dissolved it in 40 mL of sterile PBS, left it at room temperature for 1 to 2 hours, and continued to gently shake intermittently to mix well. Low temperature ultrasound was used to improve dissolution (no more than 5 min each time) and avoided excessive foaming. After it was fully dissolved, the volume was adjusted to 50 mL to a concentration of 3 mg/mL and filtered the solution under pressure with a 0.45 μm filter. Mice were given a single intravenous injection at 25 mg/kg, with 100 μL per mouse. Took 4 mg of actein and deoxyactein, added 10 ml of sterile double-distilled water to dissolve to a concentration of 0.4 mg/mL. […]

[2] = test system: ConA hepatitis mouse model; assay: Serum ALT and AST in ConA hepatitis mouse model; type: in vivo, C57BL/6 mice; conditions: serum 10 hours after ConA 15 mg/kg i.v.; gavage, extract 15 mg/kg, actein/deoxyactein 5 mg/kg; MEAN ± SEM
Experimental: The test materials and animals were the same as those in Experimental Example 1.
(§2) Grouping: C57BL/6 mice, male, 18-20 g, after 1 day of adaptive breeding, randomly divided into 5 groups: normal control group, ConA model group, triterpenoid saponin group, actein group and deoxyactein group.
(§3) Model preparation and drug administration: except the normal control group, mice were injected intravenously at a dose of ConA 15 mg/kg. The dosage of each group was the same as that of Experimental Example 1.
(1) The effects of drug administration in each group on serum ALT and AST of ConA mice were measured. Eight mice in each group were sacrificed under anesthesia 10 hours after ConA injection. Peripheral blood was taken, and serum was separated to detect ALT and AST.

[3] = test system: ConA hepatitis mouse model; assay: Liver pathological damage in ConA hepatitis mouse model (HE staining); type: in vivo, C57BL/6 mice; conditions: liver 10 hours after ConA 15 mg/kg; compared with the ConA group
Experimental: as §2, §3
(2) The effects of drug administration in each group on liver pathological damage in ConA mice were examined. Three mice in each group were sacrificed under anesthesia 10 hours after ConA injection. The left lobe of the liver was taken, cut into a size of about 5 mm3, and placed in 10% formalin solution, and dehydrated, transparently impregnated with wax, embedded, sliced, and spread, observed after staining;

[4] = test system: serum cytokines TNF-α, IL-12, IL-6, MCP-1, IFN-γ; assay: Serum inflammatory cytokine secretion in ConA mouse model; type: in vivo, C57BL/6 mice; conditions: MEAN ± SEM; for IL-6 / IL-12 / MCP-1 / TNF-α: serum 3 hours after ConA injection; for IFN-γ: serum 10 hours after ConA injection
Experimental: as §2, §3
(3) The effect of each group of drugs on serum cytokine secretion of ConA mice was examined. Six mice in each group. Peripheral blood was collected 3 hours after ConA injection and serum was separated to detect the secretion of cytokines TNF-α, IL-12, IL-6 and MCP-1. Serum was separated 10 hours after ConA injection to detect cell factor IFN-γ secretion.

[5] = test system: mouse bone marrow-derived macrophages (BMDM); assay: IL-12 and TNF-α secretion by LPS-stimulated macrophages (BMDM); type: cell-based, C57BL/6 mice; conditions: ELISA
Description: Test materials: LPS was purchased from Sigma; actein and deoxyactein were purchased from American ChromaDex; FBS was purchased from American PAA; DMEM high glucose medium; macrophage colony-stimulating factor (M-CSF) was purchased from PeproTech company; ELISA kit was purchased from BD company of the United States.
as §1
Isolation and culture of mouse bone marrow-derived macrophages (BMDM): after anesthesia of C57BL/6 mice, the mouses 2 pairs of femur and tibia were aseptically separated, and the bone marrow cells were flushed into a sterile flow tube using a 2 mL syringe with sterile PBS. Repeatedly pipetted into a bone marrow single cell suspension. After centrifugation, bone marrow cells were harvested, and 10 mL of complete medium containing 10% FBS, 1% glutamine, 1% double antibiotics (anti-penicillin, anti-streptomycin), and 10 ng/mL M-CSF were added to […] cell culture dish to culture at 37° C. After 4 days, the above fresh medium was changed, and macrophages with large volume, adherent growth, and mature differentiation were observed under the microscope on the 7th day. The cells were scraped off with a cell scraper, and repeatedly blown and mixed to form a single cell suspension, and then seeded in a 96-well plate at 1×10^5 cells/well.
BMDM cells induced activation and drug treatment: BMDM cells were treated with different doses of actein and deoxyactein, and 100 ng/mL LPS was given to stimulate cells 1 h later to simulate the activation of macrophages by bacterial infection. The cell supernatant was collected 4 hours later, and cytokine secretion was detected by ELISA.

CD45+CD3-NK1.1+ NK cells = assay: IFN-γ expression in NK cells; type: cell-based, C57BL/6 mice; conditions: bone marrow cells; actein 62.5 ng/mL, deoxyactein 250 ng/mL; PMA + ionomycin 5 h; flow cytometry; PMA + ionomycin group 42.1 ± 2.7
Experimental: Test materials: CD45-PE, CD3-FITC, NK1.1-APC antibody, Intracellular Fixation & Permeabilization Buffer Set, and Cell Stimulation Cocktail were purchased from eBioscience.
as §1
Bone marrow single cell suspension preparation: after anesthesia of C57BL/6 mice, the 2 pairs of femur and tibia of the mouse were separated aseptically, the sterile bone marrow cells were pipetted into a sterile flow tube with a 2 mL syringe and sterile PBS to obtain bone marrow single cell suspension. After centrifugation, bone marrow cells were harvested, and 1.5 mL of complete medium containing 10% FBS, 1% glutamine, and 1% double antibiotics (anti-penicillin, anti-streptomycin) were added.
Intracellular staining after drug administration and NK cell induction activation: cells were treated with actein of intermediate concentration of 62.5 ng/mL and deoxyactein at a concentration of 250 ng/mL, and the cells were stimulated with Cell Stimulation Cocktail (containing PMA, ionomycin and protein transport inhibitors) for 5 h. Surface staining was performed with CD45-PE, CD3-FITC, NK1.1-APC antibodies, intracellular staining was performed with […] antibodies, and the percentage of positive cells expressing IFN-γ in CD45^+CD3^−NK1.1^+ NK cells was detected by flow cytometry.

[6] = test system: CD45+CD3+NK1.1+ NKT cells; assay: IFN-γ expression in NKT cells; type: cell-based, C57BL/6 mice; conditions: bone marrow cells; actein 62.5 ng/mL, deoxyactein 250 ng/mL; PMA + ionomycin 5 h; flow cytometry; PMA + ionomycin group 7.1 ± 0.7
Description: Test material: same as Experimental Example 9.
Animal: C57BL/6 mice, purchased from Beijing Huafukang Biotechnology Co., Ltd
Bone marrow single cell suspension preparation: same as Experimental Example 9.
Drug treatment and intracellular staining after NKT cell induction activation: same as Experimental Example 9. Flow cytometry was used to detect the percentage of positive cells expressing IFN-γ in CD45^+CD3^+NK1.1^+ NKT cells.

CD3+CD4+ T cells = assay: IFN-γ expression in CD4+ T lymphocytes; type: cell-based, C57BL/6 mice; conditions: spleen cells; actein 62.5 ng/mL, deoxyactein 250 ng/mL; PMA + ionomycin 5 h; PMA + ionomycin group 3.8 ± 0.6
Experimental: (§4) Test materials: CD3-PE antibodies were purchased from BD Company in the United States, and CD4-FITC and CD8-PerCP antibodies were purchased from eBioscience Company; the remaining required reagents were the same as those in Experimental Example 9.
as §1
(§5) Preparation of spleen single cell suspension: after anesthesia of C57BL/6 mice, isolated the spleen of the mouse, placed the spleen in a sterile petri dish with 4 mL of PBEB added, grinded the spleen with a glass frosted surface, and filtered with a sterile 400 mesh filter. The spleen cells were placed in a flow tube, and the supernatant was discarded after centrifugation. After adding 2 mL of RBC Lysis Buffer to lyse at room temperature for 15 minutes, the supernatant was discarded by centrifugation to harvest the spleen cells. Then added 1.5 mL of complete medium containing 10% FBS, 1% glutamine, and 1% double antibiotics (anti-penicillin, anti-streptomycin), and mixed well by repeated pipetting.
(§6) Drug treatment and intracellular staining after T cell induction activation: cells were treated with 62.5 ng/mL actein and 250 ng/mL deoxyactein in a medium concentration, and Cell Stimulation Cocktail (containing PMA, ionomycin and protein transport inhibitor) was added to stimulate the cells for 5 h. […]

CD3+CD8+ T cells = assay: IFN-γ expression in CD8+ T lymphocytes; type: cell-based, C57BL/6 mice; conditions: spleen cells; actein 62.5 ng/mL, deoxyactein 250 ng/mL; PMA + ionomycin 5 h; PMA + ionomycin group 14.5 ± 1.0
Experimental: as §4, §1, §5, §6

[7] = 2.5 ng/mL, LPS 100 ng/mL, 4 hours
[8] = 12.5 ng/mL, LPS 100 ng/mL, 4 hours
[9] = 62.5 ng/mL, LPS 100 ng/mL, 4 hours
[10] = 312.5 ng/mL, LPS 100 ng/mL, 4 hours
[11] = 25 ng/mL, LPS 100 ng/mL, 4 hours
[12] = 50 ng/mL, LPS 100 ng/mL, 4 hours
[13] = 125 ng/mL, LPS 100 ng/mL, 4 hours
[14] = 250 ng/mL, LPS 100 ng/mL, 4 hours
[15] = 500 ng/mL, LPS 100 ng/mL, 4 hours

| SMILES | survival rate [1] | ALT [2] | AST [2] | liver pathological damage (HE staining, FIG. 2) [3] | IL-6 [4] | IL-12 [4] | MCP-1 [4] | TNF-α [4] | IFN-γ [4] | IFN-γ+ (CD45+CD3-NK1.1+ NK cells) | IFN-γ+ [6] | IFN-γ+ (%), CD4+T cell (CD3+CD4+ T cells) | IFN-γ+ (%), CD8+T cell (CD3+CD8+ T cells) | further results |
| --- | --- | --- | --- | --- | --- | --- | --- | --- | --- | --- | --- | --- | --- | --- |
| CC(=O)O[C@@H]1C[C@@]23C[C@@]24CC[C@H](O[C@@H]2OC[C@@H](O)[C@H](O)[C@H]2O)C(C)(C)[C@@H]4CC[C@H]3[C@]2(C)C[C@@H]3O[C@]4(C[C@@H](C)[C@@H]3[C@@]12C)O[C@H](O)[C@@]1(C)O[C@@H]41 [Actein, actein] | 60% | 39.8 ± 11.1 U/L | 212 ± 33 U/L | large pieces of hepatocyte necrosis was significantly reduced and leukocyte infiltration was reduced | 792 ± 48 pg/mL | 22 ± 1.9 pg/mL | 1832 ± 209.7 pg/mL | 173 ± 18.2 pg/mL | 116.2 ± 34.8 pg/mL | 33.0 ± 2.2 % | 3.5 ± 0.6 % | 3.1 ± 0.6% | 14.3 ± 0.7% | IL-12 ([5]; 0.5 ng/mL, LPS 100 ng/mL 1 h later, supernatant after 4 hours, LPS group 226.6 ± 26.6): 194.5 ± 22.3 pg/mL; TNF-α ([5]; 0.5 ng/mL, LPS 100 ng/mL 1 h later, supernatant after 4 hours, LPS group 2891 ± 57): 2555 ± 62.3 pg/mL; IL-12 [5, 7]: 136.3 ± 22.8 pg/mL; TNF-α [5, 7]: 2483 ± 77.3 pg/mL; IL-12 [5, 8]: 88.5 ± 10.6 pg/mL; TNF-α [5, 8]: 2327 ± 77.3 pg/mL; IL-12 [5, 9]: 48.2 ± 21.4 pg/mL; TNF-α [5, 9]: 2056 ± 49.2 pg/mL; IL-12 [5, 10]: 8 ± 0.8 pg/mL; TNF-α [5, 10]: 2062 ± 49 pg/mL |
| CC(=O)O[C@@H]1C[C@@]23C[C@@]24CC[C@H](O[C@@H]2OC[C@@H](O)[C@H](O)[C@H]2O)C(C)(C)[C@@H]4CC[C@H]3[C@]2(C)C[C@@H]3O[C@]4(C[C@@H](C)[C@@H]3[C@@]12C)OC[C@@]1(C)O[C@@H]41 [Deoxyactein, deoxyactein] | 40% | 144.4 ± 68.5 U/L | 390.8 ± 98.2 U/L | large pieces of hepatocyte necrosis was significantly reduced and leukocyte infiltration was reduced | 1406 ± 134.1 pg/mL | 190.5 ± 22.5 pg/mL | 4741 ± 665.7 pg/mL | 394.4 ± 41.8 pg/mL | 245.3 ± 56 pg/mL | 29.5 ± 3.5 % | 2.2 ± 0.4 % | 2.0 ± 0.7% | 12.1 ± 1.3% | IL-12 [5, 11]: 244 ± 2.8 pg/mL; TNF-α [5, 11]: 2529 ± 121.3 pg/mL; IL-12 [5, 12]: 177.8 ± 12.5 pg/mL; TNF-α [5, 12]: 2321 ± 97.4 pg/mL; IL-12 [5, 13]: 142.3 ± 6.8 pg/mL; TNF-α [5, 13]: 2440 ± 84.8 pg/mL; IL-12 [5, 14]: 88.1 ± 22.3 pg/mL; TNF-α [5, 14]: 2305 ± 76.8 pg/mL; IL-12 [5, 15]: 42.2 ± 23.7 pg/mL; TNF-α [5, 15]: 2077 ± 43.8 pg/mL |
